A short description of data set [1]: Deposition efficiency after nebulisation (Aerogen Pro vibrating mesh nebuliser). Conditions: 100 μL nebulised into 24-well plate. The data set is classed as physicochemical. The method, then:
The Aerogen® Pro (vibrating mesh nebuliser) connected to a nebuliser chamber was used to aerosolise unformulated solutions of TOB, and LCNPs loaded with TOB. The nebulisation chamber fitted into the well of a 24-well plate, ensuring the dose was deposited into a single well. Before use, the nebuliser was rinsed twice with 0.9% NaCl. Then each formulation of TOB was tested to ensure an even aerosol was produced. 100 μL of TOB as an unformulated solution, and in MO-LCNPs and PHY-LCNPs was nebulised into the wells of a 24-well plate that contained 200 μL of 0.9% sodium chloride. The total drug concentration was then determined from each well to calculate the total mass deposited. […] The nebulised samples were assessed for particle size and zeta potential, as described above.
For the nebulisation samples and transport studies (see below), TOB was quantified by liquid chromatography tandem mass spectrometry (LC-MS) using a Dionex UltiMate 3000 Binary Rapid Separation LC System (Thermo Scientific, USA) coupled with a TSQ Quantum Access Max (QQQ, Thermo Scientific, USA) and a modified ion-pairing method. […] 3 μL of the samples were injected and quantification was done by ESI+ and the SRM of the ion 468.184→323.960.

Data set [2] relates to CFBE41o−. Type of data set: cell-based, human. The method, then:
Cell viability was assessed through taking the contents of the basolateral compartment media and reacting it with a Cytotoxicity Detection Kit (LDH) (Roche) to determine the amount of LDH released. 200 μL of the basolateral media was taken and centrifuged at 300×g for 10 mins. 100 μL of the supernatant was mixed with 100 μL of the reaction solution, as per manufacturer's instructions. LDH release was measured after 5-minute incubation at room temperature using a plate reader at an absorbance of 492 nm.

For data set [3], the system named is PAO1 biofilm. Briefly: In vitro MBEC antibiofilm assay. The data set is classed as cell-based, P. aeruginosa. Conditions: 5 μg/mL and 15 μg/mL TOB; 24 h. As to the method: The pegs on lid of the MBEC Assay® were submerged into the bacterial suspension, with column 12 containing sterile LB broth as a negative control. The plate was incubated at 37° C. on a rotating gyrator for 24 h to form biofilm on the pegs. After 24 h, the peg lid was removed and transferred into another 96-well microtiter plate containing sterile water for 30 seconds before being transferred into a treatment plate. The peg lid in the treatment plate was incubated for 24 h at 37° C. on the rotating gyrator. In the first study, the effect of concentration variation of TOB in MO-LCNPs was determined. […] The respective controls included unloaded formulations MO-LCNP and […] at equivalent concentrations and 0.9% NaCl. […] In the second study, the difference in effect of MO- and […] compared to liposomes containing TOB was determined. […] The final concentration of MO and PHY was 0.25 mg/mL. Liposomes were prepared as described above. In the third study, TOB, AMI and GEN as unformulated solutions and loaded in MO-LCNPs were compared as treatments against PAO1 biofilms in the MBEC Assay®. The concentration of each antibiotic was 6 μg/mL. […] In all four different studies, the treatments were incubated with the PAO1 biofilm grown on the MBEC Assay® on a rotating plate at 37° C. After 24 h incubation, the peg lid was transferred to a fresh plate containing sterilized water to inhibit treatments. […]

The subject of data set [4] is P. aeruginosa (PAO1). Briefly: C. elegans PAO1 infection model. The data set is classed as in vivo, Caenorhabditis elegans. The method, then:
For the infection study, an overnight culture of P. aeruginosa (PAO1) was diluted to an OD of 0.1 and 200 μL was seeded onto NGM (50 mM NaCl and 0.35% peptone) agar plates for 12 h at 37° C. After 12 h, the collected L4 stage nematodes were incubated on PAO1 seeded agar plates and allowed to feed on the bacteria for 6 h at 25° C. (Uccelletti D et al., 2010, Antimicrobial Agents and Chemotherapy 54(9), 3853-3860). Thereafter, the nematodes were removed from the agar and washed multiple times to remove PAO1 from the outside and the nematodes were split into groups of 20 in OGM medium. Besides the non-treated control, the infected nematodes were treated with various concentrations of tobramycin as an unformulated solution or loaded in MO-LCNPs.
In both the healthy and infected nematodes study, nematodes were assessed as live or dead under a bright field microscopy through either being curled and moving (live) or stiff and non-moving (dead) at 4 h, 24 h and 48 h post treatment. The percentage of live nematodes to the total number of nematodes in the samples was compared to healthy, non-treated controls to compute the % survival.
Following 24 h and 48 h, samples of the nematodes were taken and washed with M9 buffer containing 1 mM sodium azide and then 0.01 M PBS before being counted. The nematodes were then mechanically disrupted via vortex mixing in tubes with 200 mg of 1.0 mm silicon carbide beads (BioSpec Products, Bartleville, OK) for 10 mins (Richter K et al. 2017, Frontiers in Cellular and Infection Microbiology, 7: Article 280). The disrupted nematodes and bacterial suspensions were serial diluted and spot plated on Pseudomonas isolation agar for colony forming units (CFU) counting to determine the CFU per nematode.

On to `NC[C@H]1O[C@H](O[C@H]2[C@H](O)[C@@H](O[C@H]3O[C@H](CO)[C@@H](O)[C@H](N)[C@H]3O)[C@H](N)C[C@@H]2N)[C@H](N)C[C@@H]1O` [unformulated TOB, tobramycin], for which the “deposition efficiency of TOB” value in data set [1] worked out at 3.25%. In addition, the “epithelium cell monolayer viability” value in data set [2] is “maintained the epithelium cell monolayer viability”. Besides, in data set [2] (human, 24 h), the “cell viability of the epithelium monolayer” value is “above 80%”. In data set [3], the “reduction of PAO1 load compared to the no treatment control” value is 2 log. The “survival of infected nematodes” value was found to be 13% in data set [4] (24 h, 3 μg/mL); 65% in data set [4] (24 h, 6 μg/mL); 83% in data set [4] (24 h, 15 μg/mL); 87% in data set [4] (24 h, 60 μg/mL); 7% in data set [4] (48 h, 3 μg/mL). Besides, the “bacteria killed compared to control” value in data set [4] (24 h, 15 μg/mL and 60 μg/mL) is 1 log. For the same compound, the PAO1 infection level in data set [4] (48 h) is on record as ~4 log. Besides, the PAO1 surviving in data set [4] (48 h, 60 μg/mL) was found to be 2 log. In addition, the “average survival of infected nematodes” value in data set [4] (48 h, 6-60 μg/mL) worked out at 65%.

These data come from patent US12569508B2, “Antimicrobial compositions and methods of use” (priority 2020, dated 2026).
